Drawing on patent US6579874B2, “Substituted azoles” (Novartis AG, priority 1999, dated 2003), this text covers IC50 and melting point for 23 compounds.

Counter-ions that a name gives are not always drawn.

The test system of series [1] is TNF-α release from hPBMCs. The series is described as follows: Assay for Inhibition of TNF-α Release from hPBMCs (IFNg/LPS stimulated, ELISA). The format is cell-based. The settings on record: Homo sapiens, 3 h, IFNg (100 U/ml) and LPS, three hours, TNF-α in supernatant by ELISA, read-out: IC50 for suppression of TNF release. How it is done:
Assay for Inhibition of TNF-α Release from hPBMCs
Human peripheral blood mononuclear cells (hPBMCs) are prepared from the peripheral blood of healthy volunteers using ficoll-hypaque density separation according to the method of Hansell et al., J. Imm. Methods (1991) 145: 105. and used at a concentration of 10^5 cells/well in RPMI 1640 plus 10% FCS. Cells are incubated with serial dilutions of the test compounds for 30 minutes at 37° C. prior to the addition of IFNg (100 U/ml) and LPS ([…]) and subsequently further incubated for three hours. Incubation is […] by centrifugation at 1400 RPM for 10 min. TNF-α in the supernatant is measured using a commercial ELISA (Innotest hTNFa, available from Innogenetics N.V., Zwijnaarde, Belgium). Agents of the Invention are tested at concentrations of from […]. Exemplified Agents of the Invention typical suppress TNF release in this assay with an IC50 of from about 500 nM to about 10 nM or less when tested in this assay.
(In an ELISA, binding on a coated surface is turned into a signal by an enzyme label.)

Another series has as its target T1, p38 MAP kinase (Mus musculus, UniProt P47811).
T1 construct: a fusion protein comprising full length murine p38 MAP kinase and a His tag; host or cells: E. coli
Nature of the series: p38 MAP Kinase Assay (phosphorylation of GST-ATF-2, ELISA detection). The format is biochemical, murine. The settings on record: His-p38 MAP kinase, GST-ATF-2 substrate, ATP 120 μM, 1 h at 37° C.; read-out: IC50 for p38 MAP kinase inhibition. Here is the method:
The substrate (GST-ATF-2; a fusion protein comprising amino acids 1-109 of ATF-2 and the GST protein obtained by expression in E. coli) is coated onto the webs of microtiter plates (50 μl/well; 1 μg/ml in PBS/0.02% Na azide) overnight at 4° C. The following day, the microtiter plates are washed four times with PBS/0.5% Tween 20/0.02% Na azide and are blocked with PBS/2% BSA/0.02% Na Azide for 1 h at 37° C. Plates are washed again 4 times with PBS/0.5% Tween 20/0.02% Na azide. The kinase cascade reaction is then started by adding the following reactants in 10 μl aliquots to a final reaction volume of 50 μl.
1. Agents of the Invention titrated from 10 to 0.001 μM in 10-fold dilutions or solvent (DMSO) or H2O.
2. Kinase buffer (5×); pH 7.4; 125 mM Hepes (Stock at 1M; Gibco #15630-056), 125 mM β-glycerophosphate (Sigma #G-6251):125 mM MgCl2 (Merck #5833); 0.5 mM Sodium orthovanadate (Sigma #5-6508), 10 mM DTT (Boehringer Mannheim #708992). The (5×) kinase buffer must be prepared fresh the day of the assay from 5× stock solutions kept at RT. DTT is kept at −20° C. and is added as the last reagent.
3. His-p38 MAP kinase (10 ng/well; Novartis—a fusion protein comprising full length murine p38 MAP kinase and a His tag, obtained by expression in E. coli)
4. cold ATP (final concentration 120 μM; Sigma #A-9187)
After 1 h at 37° C. the kinase reaction is terminated by washing the plates four times as previously described. Phosphorylated GST-ATF-2 is then detected by adding:
1. the PhosphoPlus ATF-2 (Thr71) Antibody (50 μl/well; 1/1000 final dilution in PBS/2% BSA/0.02% Na Azide; New England Biolabs #9221L) for 90 min at RT.
2. Biotin labelled goat-anti-rabbit IgG (50 μl/well; 1/3000 final dilution in PBS/2% BSA/0.02% Na Azide; Sigma #B-9642) for 90 min at RT.
3. Streptavidin-alkaline phosphatase (50 μl/well; 1/5000 dilution in PBS/2% BSA/0.02% Na Azide; Jackson Immunoresearch #016-050-84) for 30 min at RT.
4. Substrate (100 μl/well; Sigma 104 Phosphatase substrate tablets, 5 mg/tablet; #104-105; 1 mg/ml in substrate buffer, Diethanolamine (97 ml/l; Merck #803116)+MgCl2.6H2O (100 mg/l; Merck #5833)+Na Azide (0.2 g/l)+HCl 1M to pH 9.8) 30 min at RT.
After step 1, 2 and 3 the microtiter plates are washed four times with PBS/0.5% Tween 20/0.02% Na azide. After step 4, the plates are read in a Bio-Rad microplate reader in a dual wavelength mode (measurement filter […] and reference filter […]). The background value (without ATP) is subtracted and IC50 values are calculated using the Origin computer program (4 parameter logistic function).

T1 sequence (P47811 whole entry, the tested form may be a part): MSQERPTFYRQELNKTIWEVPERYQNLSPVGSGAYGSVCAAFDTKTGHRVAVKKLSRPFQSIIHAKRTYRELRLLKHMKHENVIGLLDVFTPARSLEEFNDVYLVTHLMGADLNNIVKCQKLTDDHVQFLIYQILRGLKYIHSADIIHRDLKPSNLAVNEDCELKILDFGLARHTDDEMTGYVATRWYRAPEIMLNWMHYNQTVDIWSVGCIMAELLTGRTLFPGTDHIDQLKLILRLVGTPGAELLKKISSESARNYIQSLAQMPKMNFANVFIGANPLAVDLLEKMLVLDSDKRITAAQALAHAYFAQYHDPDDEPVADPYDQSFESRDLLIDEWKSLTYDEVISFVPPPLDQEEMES

For the compound `C[C@H](Nc1nccc(-c2oc(C3CCNCC3)nc2-c2ccc(F)cc2)n1)c1ccccc1` [Example 8, 4-(4-Fluorophenyl)-5-(2-[1-(S)-phenylethyl]amino-4-pyrimidyl)-2-(4-NH-piperidine-1-yl)oxazole], in series [1], the IC50 (usually the concentration that inhibits the measured activity by half) fell in the range of 1 to 10 nM.

Regarding `CN1CCC(O)(c2nc(-c3ccc(F)cc3)c(-c3ccnc(NCC4CC4)c3)o2)CC1` [Example 15], on p38 MAP kinase, the concentration for half-maximal inhibition (IC50) lay in the range of 1 to 10 nM.

As to `C[C@H](Nc1nccc(-n2cc(C3CCN(CC(C)(C)O)CC3)nc2-c2ccc(F)cc2)n1)c1ccccc1` [Example 54], in series [1], the IC50 lay within 1 to 10 nM.

As to `Fc1ccc(-c2nc(C3CCNCC3)oc2-c2ccnc(NCC3CC3)n2)cc1` [Example 9, 4-(4-Fluorophenyl)-5-(2-cyclopropylmethylamino-4-pyrimidyl)-2-(4-NH-piperidin-1-yl)oxazole], the IC50 (at p38 MAP kinase; in series [1]) was 1 to 10 nM throughout.

Turning to `C[C@H](Nc1nccc(-n2cc([C@]3(O)C[C@H]4CC[C@@H](C3)N4)nc2-c2ccc(F)cc2)n1)c1ccccc1` [Example 60, 2-(4-Fluorophenyl)-1-(2-(1-(S)-phenylethyl)amino-4-pyrimidyl)-4-(3a-hydroxy-nortropan-3b-yl)imidazole], the IC50 in series [1] was 1 to 10 nM.

For `CC(C)(O)CN1CCC(c2nc(-c3ccc(F)cc3)c(-c3ccnc(NCC4CC4)c3)o2)CC1` [Example 20, 4-(4-Fluorophenyl)-2-(4-N-(2-hydroxy-2-methyl)propylpiperidine-1-yl)-5-(2-cyclopropylmethylamino-4-pyridyl)oxazole], in series [1], the IC50 was 1 to 10 nM.

For the compound `Fc1ccc(-c2nc(C3CCNCC3)oc2-c2ccnc(NCC3CC3)c2)cc1` [Example 19, 4-(4-Fluorophenyl)-2-(4-NH-piperidine-1-yl)-5-(2-cyclopropylmethylamino-4-pyridyl)oxazole], in series [1], the IC50 lay within 1 to 10 nM.

On to `C[C@H](Nc1nccc(-n2cc(-c3ccncc3)nc2-c2ccc(F)cc2)n1)c1ccccc1` [Example 35, 2-(4-Fluorophenyl)-1-(2-[1-(S)-phenyl-ethyl]amino-4-pyrimidyl) 4-(4-pyridyl)imidazole], for which the IC50 (at p38 MAP kinase; in series [1]) was 1 to 10 nM in each case.

With `CC(C)(O)CN1CCC(c2cn(-c3ccnc(NC4CCCC4)n3)c(-c3ccc(F)cc3)n2)CC1` [Example 55], in series [1], the IC50 lay within 1 to 10 nM.

Turning to `CN1CCC(O)(c2cn(-c3ccnc(NC4CCCC4)n3)c(-c3cccc(C(F)(F)F)c3)n2)CC1` (as salt: fumarate) [Example 33, 2-(3-Trifluoromethylphenyl)-4-(1-methyl-4-hydroxypiperidin-4-yl)-1-(2-cyclopentylamino-4-pyrimidyl)imidazole], the melting point (in general, the temperature of the solid-liquid transition) is 189 to 193 °C.

On to `CCOC(=O)N1CCC(c2cn(-c3ccnc(N[C@@H](C)c4ccccc4)n3)c(-c3ccc(F)cc3)n2)CC1` [Example 51, 2-(4-Fluorophenyl)-1-(2-(1-(S)-phenylethyl)amino-4-pyrimidyl)-4-(4-ethoxycarbonyl)piperidine-1-yl Imidazole], for which the IC50 (at p38 MAP kinase; in series [1]) was 1 to 10 nM in each case.

As for `CC(C)(O)CN1CCC(c2nc(-c3ccc(F)cc3)c(-c3ccnc(NC4CCCCC4)c3)o2)CC1` [Example 23, 4-(4-Fluorophenyl)-2-(4-N-(2-hydroxy-2-methyl)propylpiperidine-1-yl)-5-(2-cyclohexylamino-4-pyridyl)oxazole], the IC50 in series [1] was 1 to 10 nM.

On to `C[C@H](Nc1nccc(-n2cc(-c3cccc(Cl)c3)nc2-c2ccc(F)cc2)n1)c1ccccc1` [Example 49, 2-(4-Fluorophenyl)-1-(2-[1-(S)-phenyl-ethyl]amino-4-pyrimidyl)-4-(3-chlorophenyl)imidazole], for which the IC50 (on p38 MAP kinase; in series [1]) was 1 to 10 nM each time.

On to `C[C@H](Nc1nccc(-n2cc(C3CCN(C=O)CC3)nc2-c2ccc(F)cc2)n1)c1ccccc1` [Example 53, 2-(4-Fluorophenyl)-1-(2-(1-(S)-phenylethyl)amino-4-pyrimidyl)-4-(4-formyl)-piperidine-1-yl Imidazole], for which the half-inhibitory concentration (IC50) in series [1] was 1 to 10 nM.

Take `C[C@H](Nc1nccc(-n2cc(/C=N/NC(=N)N)nc2-c2ccc(F)cc2)n1)c1ccccc1` [Example 50, 2-(4-Fluorophenyl)-1-(2-[1-(S)-phenyl-ethyl]amino-4-pyrimidyl)-4-methyleneaminoguanidinyl-imidazole]: the IC50 in series [1] lay in the range of 1 to 10 nM.

Regarding `C[C@H](Nc1nccc(-c2oc(C3CCN(C)CC3)nc2-c2ccc(F)cc2)n1)c1ccccc1` [Example 4], the IC50 in series [1] fell in the range of 1 to 10 nM.

Take `C[C@H](Nc1nccc(-n2cc([C@]3(O)C[C@H]4CC[C@@H](C3)N4C(=O)OC(C)(C)C)nc2-c2ccc(F)cc2)n1)c1ccccc1` [Example 59, 2-(4-Fluorophenyl)-1-(2-(1-(S)-phenylethyl)amino-4-pyrimidyl)-4-(3a-hydroxy-N-tert.butyloxycarbonylnortropan-3b-yl)imidazole]: the half-maximal inhibitory concentration (IC50) in series [1] was in the range of 1 to 10 nM.

As to `C[C@H](Nc1nccc(-n2cc(C3CCNCC3)nc2-c2ccc(F)cc2)n1)c1ccccc1` [Example 52], the IC50 (at p38 MAP kinase; in series [1]) was 1 to 10 nM each time.

As for `C[C@H](Nc1cc(-c2oc(C3(O)CCN(C)CC3)nc2-c2ccc(F)cc2)ccn1)c1ccccc1` [Example 14], on p38 MAP kinase, the IC50 lay within 1 to 10 nM.

Turning to `CN1CCC(O)(c2cn(-c3ccnc(NC4CCCC4)n3)c(-c3cccc(C(F)(F)F)c3)n2)CC1` [Example 33, 2-(3-Trifluoromethylphenyl)-4-(1-methyl-4-hydroxypiperidin-4-yl)-1-(2-cyclopentylamino-4-pyrimidyl)imidazole], in series [1], the IC50 fell in the range of 1 to 10 nM.

Consider `C[C@H](Nc1nccc(-n2cc(C3CCN(C)CC3)nc2-c2ccc(F)cc2)n1)c1ccccc1` [Example 56, 2-(4-Fluorophenyl)-1-(2-(1-(S)-phenylethyl)amino-4-pyrimidyl)-4-(4-methyl)-piperidine-1-yl Imidazole], for which the half-inhibitory concentration (IC50) in series [1] lay in the range of 1 to 10 nM.

Regarding `CN1CCC(O)(c2cn(-c3ccnc(NC4CCCCC4)n3)c(-c3ccc(F)cc3)n2)CC1` [Example 31], the concentration for half-maximal inhibition (IC50) in series [1] fell in the range of 1 to 10 nM.

As to `CN1CCC(O)(c2cn(-c3ccnc(NC4CC4)n3)c(-c3cccc(C(F)(F)F)c3)n2)CC1` [Example 32, 2-(3-Trifluoromethylphenyl)-4-(1-methyl-4-hydroxypiperidin-4-yl)-1-(2-cyclopropylamino-4-pyrimidyl)imidazole], the half-maximal inhibitory concentration (IC50) in series [1] lay in the range of 1 to 10 nM.
